Article PMC3530532, “Corticosteroid-Binding Globulin: Structure-Function Implications from Species Differences” (PLoS ONE, 2012)

Legend:
[1] = target: T1, Rat CBG-RCL1 (Rattus norvegicus, UniProt P31211, A357V/P358T); assay: Isothermal titration calorimetry, steroid titrated to uncleaved rat CBG-RCL1; type: binding; details: ITC, 25°C
T1 construct: residues 5 to 374 of rat CBG (P31211); GST (N, cleaved yes); made in house; host or cells: E. coli BL21 Star (DE3)
T1 sequence (P31211 27-396 A357V/P358T): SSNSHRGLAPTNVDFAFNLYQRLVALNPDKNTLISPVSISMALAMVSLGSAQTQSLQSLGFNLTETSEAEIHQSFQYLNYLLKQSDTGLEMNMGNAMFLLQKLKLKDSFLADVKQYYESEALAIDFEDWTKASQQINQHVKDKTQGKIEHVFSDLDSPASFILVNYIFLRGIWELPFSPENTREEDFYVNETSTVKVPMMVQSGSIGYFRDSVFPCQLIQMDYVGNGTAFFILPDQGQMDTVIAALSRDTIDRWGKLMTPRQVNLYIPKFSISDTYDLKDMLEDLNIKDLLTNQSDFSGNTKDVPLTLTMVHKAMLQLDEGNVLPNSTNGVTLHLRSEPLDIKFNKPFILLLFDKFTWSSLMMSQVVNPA
Protocol: The coding sequences of residues 11 to 383 of human CBG (Swiss-Prot entry P08185) and residues 5 to 374 of rat CBG (P31211) were cloned into a pGEX-2T vector (GE Healthcare, Uppsala), yielding N-terminal glutathione-S-transferase (GST) fusion proteins. Mutations were introduced using a two-stage PCR procedure based on the QuikChange (Stratagene, Santa Clara) site-directed mutagenesis protocol. All experiments with human CBG were conducted with a mutant in which surface residue Lys126 was replaced by alanine in order to facilitate crystallization. Wild-type rat CBG (rat CBG-WT) and rat CBG mutants CBG-RCL1, CBG-RCL2 and CBG-RCL3 were produced to probe the function of the RCL residues in rat CBG. All gene constructs were confirmed by DNA sequencing prior to protein production.
The GST-tagged human and rat CBG variants were produced in E. coli BL21 Star™ (DE3) cells (Invitrogen, Carlsbad) using the ZYM-5052 auto-inducing medium. For each variant, 10 L of ZYM-5052 medium containing 100 µg/mL ampicillin were inoculated with an overnight culture of a single clone. The flasks were incubated at 37°C until the optical density at 600 nm reached 0.3. The temperature was then lowered to 20°C, and the cells were allowed to grow for an additional 20 h. The pellet was resuspended in PBS buffer (pH 7.4) containing 5 mM EDTA after cell harvesting (4 mL of buffer per gram of pellet).
The protein samples were dialyzed against ITC buffer (20 mM potassium phosphate, 50 mM NaCl, pH 7.4) and titrated with steroids in a VP-ITC microcalorimeter (Microcal, Piscataway). All solutions were filtered (0.2 µm filter pore size) and degassed for 30 min prior to the titration experiments. The sample cell was filled with protein solution containing 15 µM rat CBG or 20 µM human CBG and titrated with steroid solutions containing 150 µM and 200 µM ligand, respectively. The titrations consisted of an initial injection of 2 µL followed by 25 consecutive injections of 10 µL ligand solution at 25°C. A spacing of 240 sec between the injections was used to allow a return to the baseline. Data points from the initial injection, which are generally affected by diffusion during the initial equilibration period after experiment setup, were discarded prior to data analysis. […] The binding curve was generated by plotting the heats of injections against the ratio of ligand to protein in the cell. Integrated heat data were analyzed using nonlinear regression fit with a one-site-binding model in the Origin-7™ software provided with the VP-ITC. Changes in the free energy and entropy can be calculated using the equation: ΔG° = −RTlnK = ΔH°−TΔS°. In this equation ΔG° is the change in Gibbs free energy, R the universal gas constant, T the temperature, and K the association constant. […]

[2] = target: human CBG; parameters: method as in PMID 20631013; details: 37°C, fluorescence measurements; cited from earlier work
[3] = target: T2, Cleaved rat CBG-RCL1 (Rattus norvegicus, UniProt P31211, A357V/P358T); assay: Isothermal titration calorimetry, steroid titrated to neutrophil elastase-cleaved rat CBG-RCL1; type: binding
T2 construct: residues 5 to 374 of rat CBG (P31211); GST (N, cleaved yes); made in house; host or cells: E. coli BL21 Star (DE3)
T2 sequence (P31211 27-396 A357V/P358T limits assumed): T1 sequence (P31211 27-396 A357V/P358T)
Protocol: Cleavage of the RCL in human and rat CBG mutants was accomplished with 100 mU human neutrophil elastase (Sigma-Aldrich) per mg purified CBG at 30°C and monitored by SDS-PAGE. The cleavage reaction was stopped with AEBSF.
The protein samples were dialyzed against ITC buffer (20 mM potassium phosphate, 50 mM NaCl, pH 7.4) and titrated with steroids in a VP-ITC microcalorimeter (Microcal, Piscataway). All solutions were filtered (0.2 µm filter pore size) and degassed for 30 min prior to the titration experiments. The sample cell was filled with protein solution containing 15 µM rat CBG or 20 µM human CBG and titrated with steroid solutions containing 150 µM and 200 µM ligand, respectively. The titrations consisted of an initial injection of 2 µL followed by 25 consecutive injections of 10 µL ligand solution at 25°C. A spacing of 240 sec between the injections was used to allow a return to the baseline. Data points from the initial injection, which are generally affected by diffusion during the initial equilibration period after experiment setup, were discarded prior to data analysis. […] The binding curve was generated by plotting the heats of injections against the ratio of ligand to protein in the cell. Integrated heat data were analyzed using nonlinear regression fit with a one-site-binding model in the Origin-7™ software provided with the VP-ITC. Changes in the free energy and entropy can be calculated using the equation: ΔG° = −RTlnK = ΔH°−TΔS°. In this equation ΔG° is the change in Gibbs free energy, R the universal gas constant, T the temperature, and K the association constant. The change in enthalpy is denoted as ΔH°, and ΔS° is the change in entropy under standard conditions. The data shown in Table 2 were obtained from single titrations of each complex.

[4] = ITC, 25°C, cleaved rat CBG-RCL1

SMILES: C[C@]12CCC(=O)C=C1CC[C@@H]1[C@@H]2[C@@H](O)C[C@@]2(C)[C@H]1CC[C@]2(O)C(=O)CO [Hydrocortisone]
- TΔS° [1]: -29.02 kcal/mol
- ΔG° [1]: -9.61 kcal/mol
- ΔH° [1]: -38.62 kcal/mol
- Kd ([1]; single titration): 95 ± 7 nM
- Kd [2]: 18 nM
- TΔS° [3, 4]: -30.43 kcal/mol
- ΔG° [3, 4]: -9.2 kcal/mol
- ΔH° [3, 4]: -39.63 kcal/mol
- Kd ([3]; ITC, 25°C, single titration, cleaved rat CBG-RCL1): 209 ± 20 nM
- decrease in binding affinity upon RCL cleavage ([3]; rat CBG, uncleaved vs cleaved rat CBG-RCL1, ITC 25°C): about 2 fold
